From article PMC6447718, “PACAP-38 and PACAP(6–38) Degranulate Rat Meningeal Mast Cells via the Orphan MrgB3-Receptor” (Frontiers in Cellular Neuroscience, 2019)
Entries after “also recorded” stand apart in the source; their conditions may differ. Like-named read-outs stand apart in the source and are kept apart here.

Assays:
[1] = system: rat peritoneal mast cells; conditions: ref Baun et al., 2012, cited from earlier work; for peritoneal mast cell degranulation (result in words): rat peritoneal mast cells
Source text: Inspired by clinical findings, we have previously characterized the degranulating effect of various PACAP-analogues on isolated rat peritoneal mast cells. Based on the expectation that degranulation is mediated through the PAC1-receptor, we found an unpredicted order of potency (Baun et al., [2012]).

[2] = system: VPAC2-receptor; design: method as in Harmar et al., 2012; conditions: PACAP-38, PACAP-27 and VIP compared; ref Harmar et al., 2012; cited from earlier work
[3] = system: un-injected oocytes; assay: Two-electrode voltage clamp on un-injected Xenopus laevis oocytes (control); type: cell-based; conditions: for delayed long-lasting response in un-injected oocytes: 10 μM; for currents in un-injected oocytes (result in words): same concentrations as in receptor-expressing oocytes (0.1–3 μM; maxadilan up to 10 μM), data not shown
Description: (§1) Stage V and VI defolliculated Xenopus laevis oocytes were purchased from EcoCyte Bioscience (Dortmund, Germany) and kept in Kulori medium (90 mM NaCl, 4 mM KCl, 1 mM MgCl2, 1 mM CaCl2, and 5 mM Hepes, pH 7.4). Oocytes were micro-injected with 50 nl mRNA solution containing 30 ng RNA per oocyte and incubated at 19°C. Currents were measured after 2–5 days using a conventional two-electrode-voltage clamp (TEVC). The oocytes were placed in a 200 μl chamber and continuously exposed to a flow of Kulori medium with or without ligands (1 ml/min) while impaled with both a current and a voltage electrode filled with 3 M KCl and connected to an Oocyte Clamp Amplifier [Warner Instruments Corp. (OC-725 B) and a PC-interface (Digidata1440A, Molecular Devices)]. Current amplitude in absence or presence of ligands were analyzed using pClamp 10.2 software (Molecular Devices). All experiments were performed with oocyte membrane voltages constantly clamped to −70 mV and the temperature was kept between 19 and 22°C. In activation experiments, non-responding as well as low-responding (<10 nA) oocytes were excluded from the dataset. Ligands PACAP-38, PACAP-27, PACAP(6–38) were custom synthetized by Caslo (Lyngby, Denmark) while maxadilan was purchased from Bachem (Bubendorf, Switzerland).

[4] = system: rat meningeal mast cells; assay: Mast cell degranulation in hemi-skull preparations (dura mater, toluidine blue staining, microscopic count); type: cell-based, rat (male Sprague-Dawley); conditions: for degranulated meningeal mast cells in % of total number of mast cells: 30 s incubation, mean ± SEM; for mast cell degranulation: Figure 4A, PACAP-27 n = 6, maxadilan n = 5, mean ± SEM; for mast cell degranulation (result in words): 0.1 to 10 μM, rat meningeal mast cells
Description: Mast cell degranulation was performed as previously described (Pedersen et al., [2015]). In brief, skulls were cut mid-sagittal and the brain halves were removed, leaving the dura mater undisturbed. This was followed by immediate addition of either 350 μl 0.1, 1 or 10 μM PACAP-38 (custom synthesis by Caslo Laboratory ApS, Lyngby, Denmark) or vehicle (saline) in phosphate buffered saline (PBS). After 30 s incubation, the reactions were terminated, and the skulls were fixated in 4% paraformaldehyde in phosphate buffered saline (PBS; Glostrup Hospital Pharmacy, Denmark). The dura mater was dissected from the skull, whole mounted on slides, and mast cells were visualized by staining with 0.1% acidified toluidine blue (Sigma Aldrich, Germany). Tissues were dehydrated in graded alcohols prior to cover slip mounting. The level of mast cell degranulation was evaluated by 400× magnification (Nikon Eclipse Ni microscope) by a researcher blinded to the treatment and was counted in 10 consecutive fields along the stem part of the middle meningeal artery. Mast cells were considered degranulated if an extensive dispersion of more than 10 extruded granules were localized outside the cell or if an extensive loss of staining gave the cell a “ghostly” look.
(§2) Concentration-response curves for both oocytes and dural mast cells were analyzed for overall effects of PACAP-38 and -27 by two-way analyses of variance (ANOVA) followed by Sidak’s test for multiple pairwise comparisons. Effects of PAC1-receptor ligands on mast cell degranulation or on receptor-expressing oocytes were analyzed with a one-way ANOVA followed by Tukey’s multiple comparisons test. The effect of PACAP-38 and PACAP(6–38) on MrgB3-expressing oocytes were analyzed by an unpaired two-tailed t-test. Differences between groups were considered significant when p < 0.05 and data are presented as mean with standard error of the mean (±SEM). GraphPad Prism 7 (GraphPad Prism Software, San Diego, CA, USA) was used for statistical analysis.

[5] = system: calcitonin gene-related peptide (CGRP) release from the trigeminal nucleus caudalis; conditions: ref Jansen-Olesen et al., 2014; cited from earlier work
Source text: Future studies will have to rule out if MrgB3-receptors are involved in PACAP- ...

[6] = system: PAC1-receptor; conditions: presence of 21-amino acid domain in extracellular N-terminal domain (PAC1-full, short); ref Pantaloni et al., 1996; cited from earlier work
Source text: Pituitary adenylate cyclase-activating peptide-38 (PACAP-38) is a 38-amino acid neuropeptide located in both sensory and parasympathetic perivascular nerve fibers (Moller et al., [1993]; Mulder et al., [1994]). A C-terminal truncated 27-amino acid (PACAP-27) version is endogenously present as well but is less abundant (Miyata et al., [1990]; Arimura et al., [1991]; Ogi et al., [1993]). […] At present, three PACAP-receptors have been identified: PA ... || Several different splice variants of the PAC1-receptor have been identified in rats. Splice sites in the extracellular N-terminal domain and the third intracellular loop account for fine tuning of ligand affinity and signal transduction through adenylate cyclase or PLC activation (Deutsch and Sun, [1992]; Spengler et al., [1993]).

[7] = system: VPAC1-receptor; design: method as in Harmar et al., 2012; conditions: PACAP-38, PACAP-27 and VIP compared; ref Harmar et al., 2012; cited from earlier work
[8] = system: MrgB3-receptor (RGD1560730); assay: Two-electrode voltage clamp on MrgB3-receptor-expressing Xenopus laevis oocytes; type: cell-based, rat; conditions: for activation of MrgB3-receptor (result in words): 1–10 μM, holding potential −70 mV
Source text: (§3) DNA of the coding region of Rattus Norvegicus Adcyap1r1 variant 5 (NM_001270582.1) encoding the null-splice variant (short N-terminal and neither exon 14 or 15) of the PAC1-receptor (Vector: EX-Rn10199-M03) was ordered from GeneCopoeia. DNA encoding the RGD1560730 gene (XM_006229262.3, GenScript), was cloned into the pXOOM vector as previously described (Jespersen et al., [2002]). DNA was purified using Plasmid DNA Purification NucleoBond Xtra Midi-kit (Macherey-Nagel). […] Extracted plasmids were linearized down-stream the poly(A) segment using the XhoI restriction enzyme (New England Biolabs, Ipswich, MA, USA). RNA was in vitro transcribed by synthetization from the T7 RNA polymerase promoter using the mMessenger mMachine kit (Ambion) according to manufacturer’s protocol. Messenger RNA was purified using the MEGAclear kit (Ambion). Transcribed RNA integrity was assessed by agarose gel electrophoresis.
as §1, §2

[9] = system: PAC1-receptor (Rattus Norvegicus Adcyap1r1 variant 5, null-splice variant); type: cell-based
Source text: as §3, §1, §2

[10] = system: migraine patients; conditions: ref Schytz et al., 2009, cited from earlier work
Source text: Pituitary adenylate cyclase-activating peptide-38 (PACAP-38) is a 38-amino acid neuropeptide located in both sensory and parasympathetic perivascular nerve fibers (Moller et al., [1993]; Mulder et al., [1994]). A C-terminal truncated 27-amino acid (PACAP-27) version is endogenously present as well but is less abundant (Miyata et al., [1990]; Arimura et al., [1991]; Ogi et al., [1993]). […] Degranulation of mast cells can be induced either by an allergen-IgE-dependent mechanism or via an IgE-independent mechanism. The latter mechanism can be activated by a group of molecules known as basic secretagogues.

[11] = 10.0 μM, n = 6, **** p < 0.0001 for PACAP-38 (two-way ANOVA, Sidak's test)

Pituitary Adenylate Cyclase Activating Peptide-27 [PACAP-27]
peritoneal mast cell degranulation (result in words) [1]: not PACAP-27 and VIP, caused degranulation; also recorded: weak degranulating effect
profile on VPAC2-receptor (result in words) [2]: equipotent
delayed long-lasting response in un-injected oocytes [3]: not PACAP-27
currents in un-injected oocytes (result in words) [3]: Currents were not observed
degranulated meningeal mast cells in % of total number of mast cells ([4]; 0.1 μM, n = 5): 7.1 ± 3.2 % degranulation
degranulated meningeal mast cells in % of total number of mast cells ([4]; 1.0 μM, n = 6): 16.9 ± 5.5 % degranulation
degranulated meningeal mast cells in % of total number of mast cells [4, 11]: 12.1 ± 3.8 % degranulation
mast cell degranulation ([4]; 10 μM, 30 s): 12 ± 4%
mast cell degranulation (result in words) ([4]; 30 s): did not induce mast cell degranulation that was significantly different from saline treatment; also recorded: unresponsive
release of CGRP from the trigeminal nucleus caudalis (result in words) [5]: neither VIP, PACAP-27 nor maxadilan, mediated the release
effect of 21-amino acid N-terminal domain of PAC1 on binding (result in words) [6]: impairs PACAP-27 binding
profile on VPAC1-receptor (result in words) [7]: equipotent
activation of MrgB3-receptor (result in words) [8]: not significantly different from baseline; also recorded: no change; also recorded: not PACAP-27 and maxadilan induces currents
activation of PAC1-receptor / relative potency (result in words) [9]: equipotent; also recorded: significant increase in membrane current; also recorded: activates the PAC1-receptor with apparently equal potencies

pituitary adenylate cyclase activating peptide-38 [PACAP-38]
peritoneal mast cell degranulation (result in words) [1]: caused degranulation; also recorded: strong degranulation effect; also recorded: almost total mast cell degranulation within the first 10–20 s after application
profile on VPAC2-receptor (result in words) [2]: equipotent
delayed long-lasting response in un-injected oocytes [3]: 15 out of 19
currents in un-injected oocytes (result in words) [3]: Currents were not observed
degranulated meningeal mast cells in % of total number of mast cells ([4]; 0.1 μM, n = 5): 12.4 ± 3.8 % degranulation
degranulated meningeal mast cells in % of total number of mast cells ([4]; 1.0 μM, n = 6): 17.9 ± 3.7 % degranulation
degranulated meningeal mast cells in % of total number of mast cells [4, 11]: 48.4 ± 6.2**** % degranulation
increase in mast cell degranulation ([4]; 10 μM, 30 s, p < 0.0001): eight-fold increase
mast cell degranulation (result in words) ([4]; 30 s): more potent mast cell degranulating agent than Pituitary Adenylate Cyclase Activating Peptide-27 (PACAP-27) in the meninges; also recorded: significant mast cell degranulation only was observed after stimulation with PACAP-38; also recorded: strong degranulation of meningeal mast cells
release of CGRP from the trigeminal nucleus caudalis (result in words) [5]: mediated the release
migraine attacks / headache after infusion (result in words) ([10]; PACAP-38: 20-min intravenous infusion): provokes migraine attacks in migraine patients as well as headache in non-migraineurs
adverse events after infusion (result in words) ([10]; infusion, terminated by antihistamine treatment): all participants in the clinical provocation studies experienced long-lasting flushing; also recorded: heat sensation and long-lasting flushing
profile on VPAC1-receptor (result in words) [7]: equipotent
activation of MrgB3-receptor (result in words) [8]: only PACAP-38 induces a significant change in current; also recorded: rapid concentration-depended inward current; also recorded: caused a change in current; also recorded: induces currents
activation of PAC1-receptor / relative potency (result in words) [9]: equipotent; also recorded: significant increase in membrane current; also recorded: activates the PAC1-receptor with apparently equal potencies

COc1ccc2c(c1)CC[C@@H]1[C@@H]2CC[C@]2(C)[C@@H](NCCCCCCN3C(=O)C=CC3=O)CC[C@@H]12 [U-73122]
effect of inhibitor on PACAP-38-induced degranulation (result in words) [1]: impaired

maxadilan
peritoneal mast cell degranulation (result in words) [1]: no effect on mast cell degranulation; also recorded: ineffective
currents in un-injected oocytes (result in words) [3]: Currents were not observed
mast cell degranulation ([4]; 10 μM, 30 s): 5 ± 2%
mast cell degranulation (result in words) ([4]; 30 s): unresponsive
release of CGRP from the trigeminal nucleus caudalis (result in words) [5]: neither VIP, PACAP-27 nor maxadilan, mediated the release
activation of MrgB3-receptor (result in words) [8]: does not activate MrgB3-receptors; also recorded: no change; also recorded: not PACAP-27 and maxadilan induces currents
current ([8]; up to 10 μM, −70 mV, Figure 4C, n = 9, mean ± SEM): −0.03 ± 0 μA
activation of PAC1-receptor / relative potency (result in words) ([9]; 0.01 to 1 μM, holding potential −70 mV): activates the PAC1-receptor with apparently equal potencies; also recorded: equipotent

Nc1ncnc2c1ncn2C1CCCO1 (stereo not drawn) [SQ22536]
effect of inhibitor on PACAP-38-induced degranulation (result in words) [1]: ineffective
